Test results taken from patent US7759334B2, “Soluble forms of amoxicillin and treatment of animals” (Pharmaceutical Solutions, Inc., priority 1999, dated 2010).

Key:
STREP Suis Type 2 = assay: Treatment of streptococcus Suis in nursery pigs; format: in vivo; details: 300 pigs, 3 mg/lb for 7 days from 35 days of age
Description: Treatment of streptococcus Suis—a group of 600 pigs was divided into 2 groups of 300. Each group was side by side in a 600 animal nursery room. Group 1 (300) was treated with 3 mg/lb of amoxicillin at 35 days of age for a period of 7 days. Group 2 (300) was treated with a placebo—citric acid/nutrisweet/strawberry flavor at 35 days of age for a period of 7 days. […] Death loss ranged from 3 to 10 percent with poor treatment results.

Hermophilus Pawasuis = assay: Treatment for Hermophilus Pawasuis in finishing gilts; format: in vivo; details: 500 gilts, 3 mg/# via water
From the text: Treatment for Hermophilus Pawasuis in finishing Gilts—wt. 250#. • Marked Reduction in death loss following 5 day coarse of therapy.

[1] = cited from earlier work
Enterococci = details: cited from earlier work

In the case of CC1(C)S[C@@H]2[C@H](NC(=O)[C@H](N)c3ccc(O)cc3)C(=O)N2[C@H]1C(=O)O [amoxicillin], the “Chronic cells @ 50” value (STREP Suis Type 2) is reported as 1, the “Morbidity Number” value (STREP Suis Type 2) is reported as 2 and the “Mortality Number” value (STREP Suis Type 2) is reported as 0. For the same compound, the “Morbidity 8-142” value (Hermophilus Pawasuis) was 0, the “Mortality In 14 days” value (Hermophilus Pawasuis) was 0 and the “Mortality result in 7 days” value (Hermophilus Pawasuis) was 0. The “Morbidity 0-7” value (Hermophilus Pawasuis; days 0-7) was 2, the “Peak plasma concentration relative to ampicillin” value ([1]; oral administration of the same doses) was “two to two and one-half times greater” and the “Time at which peak plasma concentrations are reached” value ([1]; oral administration) was 2 h. For the same compound, the “Peak concentration in plasma (average)” value ([1]; oral, 250 mg administered) was “about 4 μg/ml”.

For CC1(C)S[C@@H]2[C@H](NC(=O)[C@H](N)c3ccccc3)C(=O)N2[C@H]1C(=O)O [ampicillin], the “IVIIC for ampicillin averages” value (Enterococci) is listed as 1.5 mg/mL.
